Laboratory results taken from PMC13050480, “Preclinical Development of GT-14, a Novel Inhibitor of Gαi2 Protein: Comprehensive Evaluation of Physicochemical, Metabolic Characteristics and Tissue Distribution” (The AAPS journal, 2025).
In brackets after ≈: the same amount, converted by molar mass. Entries after “also recorded” stand apart in the source; their conditions may differ.

Columns and labels:
[1] = system: liver microsomes; assay: Phase II glucuronidation reaction with liver microsomes; type: in vitro ADME; settings: UDPGA, 2 h
Protocol: The in vitro phase II glucuronidation reaction was carried out using a published protocol that involves the use of uridine diphosphate glucuronic acid (UDPGA) as cofactor, saccharolactone as beta-glucuronidase inhibitor to drive the forward reaction to release the metabolite, potassium phosphate buffer (KPI) to mimic physiological conditions, and alamethicin as a surfactant for the response. The components were pipetted into microcentrifuge tubes in the following order: GT-14 testing solution in KPI (pH 7.4), solution B (25 mM saccharolactone and 5 mM magnesium chloride), solution A (25 mM uridine diphosphate glucuronic acid and potassium chloride), microsome. Samples (100 μL) were taken at 2 h. The reaction was terminated with 50 μL of solution containing 0.6% formic acid in acetonitrile + internal standard (rutin) at each time point and vortexed for 1 min. The samples were then centrifuged at 14,000 rpm for 15 min. The supernatant (100 μL) was then collected and loaded into the UPLC for analysis.

[2] = pH-dependent stability in USP buffers; type: physicochemical; settings: 25°C
Protocol: (§1) The pH-dependent stability of GT-14 was assessed in aqueous media of pH ranging from 1 to 10 at room temperature. Standard USP buffers ([11]) were prepared and used for this experiment. Details of buffer solutions are provided in Table I. For the pH solubility profile, GT-14 solid was added in excess amounts in various buffer solutions.
To determine the stability of GT-14 in different buffers, GT-14 stock solution (prepared in ACN at a concentration of 75 μg/mL) was added to different buffers to achieve a target concentration of 5 μg/mL. Each buffer solution was prepared in triplicate. All solutions were put on the shaker bath maintained at 25°C. Aliquots were withdrawn at predetermined time points (0, 24, 72, 96, and 120 hrs), centrifuged at 15,000 rpm for 10 min, diluted with Water: ACN (50:50, v/v), and analyzed by the UPLC assay.

[3] = system: PC3 cells; settings: cited from earlier work
[4] = system: Caco-2 cell monolayers; assay: Bi-directional transport study in Caco-2 cell culture model; type: in vitro ADME, human
Protocol: (§2) Caco-2 cells were cultivated as described previously with slight modification ([12]). Briefly, a cell monolayer was prepared by seeding 400,000 cells per insert (Nunc, surface area 4.2 cm^2, 3 μm pore size). Cells were maintained at 37°C under 90% humidity and 5% CO2. Monolayers were used between 19 and 22 days after seeding. The integrity of each monolayer was checked by measuring the transepithelial electrical resistance (Millicell ERS®) before the experiment. The normal TEER values obtained were above 400 Ω·cm^2. Cell monolayers with TEER values less than 400 Ω·cm^2 were not used. Hank’s balanced salt solution (HBSS) (9.8 g/L) was supplemented with NaHCO3 (0.37 g/L), HEPES (5.96 g/L), and glucose (3.5 g/L) for all experiments, after adjusting the pH to the desired value.
(§3) For transport studies, 2.5 mL of GT-14 testing solution (10 μM) in HBSS (pH 7.4) was added to the apical side (A to B transport) or the basolateral side (B to A transport). Five donor samples (200 μL) and five receiver samples (200 μL) were taken at 0, 1, 2, 3, and 4 h followed by the addition of 200 μL of GT-14 test solution to the donor or 200 μL of blank HBSS buffer to the receiver side. Then, 100 μl of an ACN containing internal standard was added to the samples right after sampling. The TEER was measured at the end of the study, and the cell layer was washed carefully using cold blank HBSS 3 times, then cut and sonicated for 30 min in 1.0 mL of blank HBSS for intracellular GT-14 concentration measurement. All samples were centrifuged at 15,000 rpm for 15 min at 4°C for UPLC analysis.
(§4) The apparent permeability coefficient and efflux ratio were obtained according to the following equations: […]

[5] = as above; type: in vitro ADME, human; settings: human, donor 10 μM
Protocol: as §2, §3, §4

[6] = pH-dependent solubility in USP buffers; type: physicochemical; settings: standard USP buffer, aqueous buffer
Protocol: as §1

C/C(=N\c1ccc(O)cc1)c1cc2ccccc2n1C [GT-14, (E)-4-((1-(1-methyl-1H-indol-2-yl)ethylidene)amino)phenol]
Phase II glucuronidation (UPLC peaks) [1]: no additional peaks were observed | pH stability (in words) ([2]; acidic to neutral pH 1.2–7.4, 120 hours): relatively stable | pH stability (in words) ([2]; alkaline pH 9–10, 120 hours): significant degradation; also recorded: degrading; also recorded: degradation is significantly pronounced | pH stability, % remaining ([2]; pH 1.2–7.4, up to 120 hours): > 90% remaining | migratory capability of PC3 cells [3]: significant reduction | stimulatory effects of docetaxel (cell migration) in PC3 cells ([3]; simultaneous treatment): blocked | BCS class ([4]; based on low aqueous solubility and high permeability): BCS class II | predicted absorption in the GI tract in humans ([4]; predicted from Caco-2 permeability): > 75% | efflux ratio at 4 h, 10 μM ([5]; Caco-2, pH 7.4): 1.8 | Papp A→B at 4 h, 10 μM ([5]; Caco-2, HBSS pH 7.4, n=3, read-out: apical to basolateral permeability (Pa-b)): 13 ×10⁻⁶ cm/s | Papp B→A at 4 h, 10 μM ([5]; Caco-2, HBSS pH 7.4, n=3, read-out: basolateral to apical permeability (Pb-a)): 24.2 ×10⁻⁶ cm/s | solubility thermodynamic at 24 h ([6]; between pH 5 and 7, 24 h): < 10 µg/mL | solubility thermodynamic at 24 h ([6]; pH 1.2, 24 h): ~80 µg/mL (≈ 303 µM) | solubility thermodynamic at 24 h ([6]; pH 4.6, 24 h): ~140 µg/mL (≈ 530 µM)
